The test system of one experiment is Foxp3. As to the kind of experiment: Foxp3 expression in stimulated CD4+ T cells by real-time RT-PCR. The format is cell-based, mice. To be noted: approximately 50 μM; mouse spleen CD4+ T cells stimulated by anti-CD3 and anti-CD28.
Experiment [1] has as its system allogenic human leukocytes. As to the kind of experiment: Mixed leukocyte reaction (MLR), 3H-TdR incorporation. The format is cell-based. To be noted: for cpm (3H-TdR incorporation, lymphocyte proliferation) as % of the control group: approximately 50 μM, 5 days incubation. Here is the method:
Leukocytes were separated from peripheral blood of two allogenic volunteers, and then suspended with a concentration of approximately 2×10^6 ml^−1 in IMDM supplemented with 10% fetal bovine serum (Gibco, USA). 100 μl of each cell suspension was added and mixed in the each well of 96-well cell culture plate. Afterwards, saline solution was added to a control group, while chebulagic acid or punicalagin, which was diluted with saline solution by 2-fold, was added to treatment groups. Then, the plates were incubated with 5% CO2 at 37° C. for 5 days. 20 μl (approximately 0.5 μCi) of tritiated thymidine (^3H-TdR) was added to each well and incubated for 8 hours.
After the incubation, the leukocytes at each well were adsorbed on a glass fiber filter by a cell harvester (Cambridge, USA) and dried thereafter. Using Scintillation beta counter (Packard, USA), an amount of ^3H-TdR incorporated within the cells was measured in a cpm value. This measurement indicates the level of lymphocyte proliferation, which-is illustrated in FIG. 2.
In FIG. 2, CsA represents a group with 1 μM of cyclosporin A used as a positive standard specimen. The concentration of each chebulagic acid and punicalagin was approximately 50 μM. Each of the experimental data was expressed as average±standard error with a p* value of less than 0.05.

Experiment [2] relates to collagen-induced arthritis. As to the kind of experiment: Collagen-induced arthritis (CIA), prophylactic dosing model. The following applies: 10 mg/kg and 20 mg/kg i.p. daily for 3 weeks (day 22 to day 42); DBA/1J mice. The format is in vivo. Here is the method:
(§1) As introduced in an article by Luross and Williams (Immunology, 103(4), pp. 407-416, 2001), a mice model with collagen-induced arthritis (CIA) was used to check whether compounds with a DP or HHDP structure had immune regulatory effects on the chronic inflammation or autoimmune diseases. Male DBA/1J mice, which were 7 to 9 weeks old (SLC Co., Japan), received a subcutaneous injection at the base of tails with approximately 200 μg of bovine type II collagen (CII) in complete Freund's adjuvant (CFA) on days 0 and 21 to induce systemic autoimmune arthritis. […]
For the prophylactic dosing model, the control group and the treatment groups respectively received an intraperitoneal injection of saline solution and 10 mg/kg and 20 mg/kg of chebulagic acid daily for 3 weeks (from day 22 to day 42). A degree of arthritis of the mice was measured for every interval of 3 to 4 days from day 22 to day 63. […] Each of the experimental data was expressed as average±standard error with a P* value of less than 0.05.
(§2) The daily observed arthritis degree of mice was scored for each paw as follows: 0=normal, 1=slight erythema and edema, 2=increased edema with loss of landmarks, 3=severe edema, and 4=severe edema with ankylosis on flexion. […] Each group was then assigned an arthritic score expressed as a mean articular index.

The test system of experiment [3] is collagen-induced arthritis. As to the kind of experiment: Collagen-induced arthritis (CIA), therapeutic dosing model. The format is in vivo, mice. To be noted: 20 mg/kg i.p. daily for 3 weeks after arthritis induced (after day 63); within 1 week of therapeutic administration. Here is the method: as §1
For the therapeutic doing model, another experiment was performed separately from the above experiment for the prophylactic dosing model. […] During 3 weeks of the treatment period, a degree of arthritis of the mice was measured for every interval of 3 to 4 days. […] Each of the experimental data was expressed as average±standard error with a P* value of less than 0.05.
as §2

For experiment [4], the system named is CD4+CD25+ regulatory T cells. As to the kind of experiment: Regulatory T cells in inflamed synovial tissues of CIA mice (FACS, Foxp3 RT-PCR). The experiment is classed as in vivo. The following applies: 20 mg/kg. An excerpt: A correlation between immune regulation by chebulagic acid and regulatory T cells was studied through estimation of an increase/decrease in the number of regulatory T cells in inflamed synovial tissues of the mice with collagen-induced arthritis set in specific groups in Example 3. The knee joints of the limbs with edema were isolated and the surrounding muscle, patellar ligament and patella were removed to obtain the synovial tissues. Each of the synovial tissues was cut into small pieces and incubated twice in a buffer solution at 37° C. for 30 minutes. The buffer solution includes approximately 1 μg/ml collagenase type VI (Sigma, USA), 2% fetal bovine serum (Gibco, USA) and 1 mM EDTA (Sigma, USA). The cells of the isolated synovial tissues were collected and stained with anti-CD4-FITC antibodies (BD Bioscience, USA) and anti-CD25-PE antibodies (BD Bioscience, USA) for fluorescence-activated cell sorter (FACS) analysis (BD Bioscience, USA).

For a further experiment, the system named is ovalbumin-induced asthma. As to the kind of experiment: Ovalbumin-induced asthma (OIA), blood IgE level. The format is in vivo. To be noted: 20 mg/kg i.p. daily for two weeks; Balb/c mice. Here is the method: The immune regulation effects by compounds with a DP structure, preferably a HHDP structure, were estimated through a mice model with ovalbumin-induced asthma (OIA).
Balb/c mice (Samtaco, Korea) received an intraperitoneal injection of ovalbumin on days 0 and 14, and a solution of 1% ovalbumin was sprayed daily for 20 minutes on days 30, 32 and 34. 20 mg/kg of chebulagic acid was daily injected intraperitoneally for two weeks and bloods were taken to estimate the IgE level to check whether chebulagic acid had efficacy for the mice with the hypersensitive inflammatory disease.

The subject of another experiment is skin allograft. As to the kind of experiment: Skin allograft between allogenic mice. The experiment is classed as in vivo. The following applies: 20 mg/kg i.p. daily; Balb/c skin grafted to C57B1/6 mouse. Here is the method: To verify that compounds with a DP or HHDP structure are capable of suppressing a transplantation rejection response or a graft-versus-host disease directly in vivo, a skin graft was performed between allogenic mice and then chebulagic acid was treated to estimate the level of suppression against the tissue transplantation (Schwoebel et al., Lab Anim., 39(2), pp. 209-214, 2005).
Skin tissues including the derma (e.g., approximately 1 cm×approximately 1 cm) from the back of a Balb/c mouse (Samtaco, Korea) and a C57B1/6 mouse (Samtaco, Korea) were isolated while being anesthetized. The skin tissue of the Balb/c mouse was grafted to the back of the C57B1/6 mouse. After the next day of the skin graft, the treatment group and the control group received the daily intraperitoneal injection of 20 mg/kg of chebulagic acid and saline solution, respectively. It was checked whether the grafted skin tissues in the control group and the treatment group were normal or necrotized.

Setting [5] is: synovial tissues of mice with arthritis.

`O=C1OC2C(O)OC3COC(=O)c4cc(O)c(O)c(O)c4-c4c(O)c(O)c5oc(=O)c6c(c(O)c(O)c7oc(=O)c4c5c76)-c4c(cc(O)c(O)c4O)C(=O)OC3C2OC(=O)c2cc(O)c(O)c(O)c2-c2c1cc(O)c(O)c2O` (centres unmarked) [punicalagin]: in the experiment with Foxp3, the “increased amount of Foxp3 expression compared with the control group” value (from here on “increased amount of Foxp3 expression”) is on record as “approximately 737%”. The “cpm (3H-TdR incorporation, lymphocyte proliferation) as % of the control group” value in experiment [1] was “approximately 34.1%”.

On to `O=C(O)C[C@@H]1C(=O)O[C@H]2[C@@H]3OC(=O)c4cc(O)c(O)c(O)c4-c4c(cc(O)c(O)c4O)C(=O)OC[C@H]2O[C@@H](OC(=O)c2cc(O)c(O)c(O)c2)[C@@H]3OC(=O)c2cc(O)c(O)c3c2[C@H]1[C@H](O)C(=O)O3` [chebulagic acid], for which, in the experiment with Foxp3, the “increased amount of Foxp3 expression” value is listed as “approximately 375%”. The “suppression of lymphocyte proliferation compared with cyclosporin” value in experiment [1] (approximately 50 μM vs 1 μM cyclosporin A) was “as effective as 1 μM cyclosporin”. Further, the “cpm (3H-TdR incorporation, lymphocyte proliferation) as % of the control group” value in experiment [1] is reported as “approximately 9.7%”. Moreover, the “onset of collagen-induced arthritis and articular index” value in experiment [2] is “decreased the onset of collagen-induced arthritis and the articular index”. Moreover, in experiment [3], the arthritis progression result is listed as “significant inhibition of the arthritis progression”. Moreover, in experiment [4] (CIA mice), the “increase of the CD4+CD25+ T cells compared with the control group” value was “approximately 100%” and the “increase of the Foxp3 expression compared with the control group” value is recorded as “approximately 550%”. In experiment [4] (setting [5]), the “CD4+CD25+ T cell ratio (%)” value came out at 5.0 ± 0.4 % and the Foxp3 expression level amounted to 3.3 ± 0.3. Besides, the “IgE level in blood as compared with the control group OVA-Control” value in the experiment on ovalbumin-induced asthma is “approximately 28.5%”. The “success ratio and period of maintaining the tissue graft” value in the experiment with skin allograft was “increased the success ratio and period of maintaining the tissue graft”.

Turning to `O=C(O[C@@H]1O[C@@H]2COC(=O)c3cc(O)c(O)c(O)c3-c3c(cc(O)c(O)c3O)C(=O)O[C@H]([C@H]1O)[C@@H]2O)c1cc(O)c(O)c(O)c1` [corilagin], in the experiment with Foxp3, the “increased amount of Foxp3 expression” value is recorded as “approximately 350%”.

These data come from patent US20080214656A1, “Compounds With Diphenoyl-Structure For the Treatment of Immune Diseases” (Neurogenex Co., Ltd., priority 2004, published 2008).
